{
  "source": "patent US20190054022A1",
  "about": "“FORMULATIONS OF SITE-SPECIFIC, MICROPARTICULATE COMPOSITIONS AND THEIR USE TO IMPROVE OUTCOME AFTER ANEURSYMAL SUBARACHNOID HEMORRHAGE” (Edge Therapeutics, Inc., priority 2016, published 2019)",
  "key": {"[1]": {"system": "patients with aneurysmal SAH", "details": "in vivo; cited from earlier work"}, "[2]": {"system": "patients with SAH secured by endovascular coiling", "details": "cited from earlier work; for patients with primary end point: placebo 27%; for patients with poor outcome (extended Glasgow Outcome Scale score <1=4): placebo 24%"}, "[3]": {"system": "patients with SAH secured by surgical clipping", "details": "cited from earlier work"}, "[4]": {"system": "double hemorrhage dog model of SAH", "test": "Mongrel dog SAH efficacy study: angiographic vasospasm (basilar artery diameter)", "type": "in vivo, mongrel dogs", "experimental": "Dose translation from animal to human studies revisited. […] Dogs were euthanized on day 28 or 49. Dogs were anesthetized as described above, blood was collected and blood pressure, temperature, heart rate and oxygen saturation were monitored continuously while animals were under anesthesia. Blood gases were obtained before and after the injections. Cerebral angiography was performed through a 4F catheter inserted into the femoral artery and advanced under fluoroscopic guidance into the proximal portion of one vertebral artery using a guide wire. […] Images were captured digitally using identical exposure factors and magnification and an internal magnification standard was included in every angiogram. […] One half of the blood was injected, followed by injection of microparticles and then the remaining blood. The needle was withdrawn and the dogs were kept 30° head down for 15 minutes after which the femoral catheter was removed, the artery was ligated, and the incision was closed. For […] injection, the blood was injected into the cisterna magna and then the dog was placed prone in a stereotactic unit. […] Blood was injected into the cisterna magna using the same procedure as on day 1 except that microparticles were not injected. Angiography was repeated on days 8 and 15. The diameter of the basilar artery was measured at 5 equally spaced points by two blinded observers and the means averaged. Angiographic vasospasm was assessed by comparing the diameters of basilar arteries from Days 1, 8 and 15 and the time course and severity of angiographic vasospasm was determined. Dogs were weighed weekly and examined daily for 14 days, including behavior examination [Zhou C, Yamaguchi […], Zhang J H. Role of p53 and apoptosis in cerebral vasospasm after experimental subarachnoid hemorrhage. J Cereb Blood Flow Metab 2005; 25:572-82.]. […] Indirect blood pressure was measured in awake dogs daily for the first 14 days and weekly thereafter."}, "[5]": {"test": "Nimodipine release in vivo: plasma concentration after subcutaneous injection", "parameters": "species or system Wistar rats", "details": "20 mg/kg or 200 mg/kg", "experimental": "A mobile phase of water:methyl alcohol:tetrahydrofuran was used (60:20:20) at 2 mL/min with detection at 235 nm.\nBlood samples were collected from two alternating cohorts of 2 or 3 animals/cohort in the microparticle formulation-injected groups. Collection was immediately before injection and then 1, 12, and 24 hours post dose, and on days 4, 8, 11, and 15. After the last blood sample collection interval, the surviving animals were euthanized via carbon dioxide inhalation. Animals were euthanized by cervical dislocation and the carcasses were discarded."}, "[6]": {"system": "double hemorrhage dog model of SAH", "test": "Mongrel dog SAH study: behavior, blood pressure, microthrombi, neuronal injury", "type": "in vivo, mongrel dogs", "details": "placebo microparticle plus oral nimodipine", "experimental": "Blood was injected into the cisterna magna using the same procedure as on day 1 except that microparticles were not injected. Angiography was repeated on days 8 and 15. The diameter of the basilar artery was measured at 5 equally spaced points by two blinded observers and the means averaged. Angiographic vasospasm was assessed by comparing the diameters of basilar arteries from Days 1, 8 and 15 and the time course and severity of angiographic vasospasm was determined. Dogs were weighed weekly and examined daily for 14 days, including behavior examination [Zhou C, Yamaguchi […], Zhang J H. Role of p53 and apoptosis in cerebral vasospasm after experimental subarachnoid hemorrhage. J Cereb Blood Flow Metab 2005; 25:572-82.]. […] Indirect blood pressure was measured in awake dogs daily for the first 14 days and weekly thereafter. Dogs were euthanized by an intravenous overdose of sodium pentobarbital. They were perfused through the heart with PBS followed by 10% neutral buffered formalin. […] Neuronal degeneration and apoptosis were scored by a pathologist blinded to the assigned group on a semi-quantitative scale as normal, minimal, mild, moderate or severe. Microthrombi present in three (3) 100×100 μm fields were counted."}, "[7]": {"details": "oral, total single day dose of 360 mg; cited from earlier work"}, "[8]": {"test": "Mongrel dog SAH study: plasma and CSF nimodipine concentration", "type": "in vivo, mongrel dogs", "details": "oral 5.2 mg/kg daily, day 3 (highest), n=7"}, "[9]": {"target": "T1, R-type calcium current (Rattus norvegicus, UniProt Q07652)", "T1 construct": "R-type calcium current in the neurohypophysial nerve endings at 40 nM concentration; host or cells: neurohypophysial nerve endings", "T1 sequence (Q07652 whole entry)": "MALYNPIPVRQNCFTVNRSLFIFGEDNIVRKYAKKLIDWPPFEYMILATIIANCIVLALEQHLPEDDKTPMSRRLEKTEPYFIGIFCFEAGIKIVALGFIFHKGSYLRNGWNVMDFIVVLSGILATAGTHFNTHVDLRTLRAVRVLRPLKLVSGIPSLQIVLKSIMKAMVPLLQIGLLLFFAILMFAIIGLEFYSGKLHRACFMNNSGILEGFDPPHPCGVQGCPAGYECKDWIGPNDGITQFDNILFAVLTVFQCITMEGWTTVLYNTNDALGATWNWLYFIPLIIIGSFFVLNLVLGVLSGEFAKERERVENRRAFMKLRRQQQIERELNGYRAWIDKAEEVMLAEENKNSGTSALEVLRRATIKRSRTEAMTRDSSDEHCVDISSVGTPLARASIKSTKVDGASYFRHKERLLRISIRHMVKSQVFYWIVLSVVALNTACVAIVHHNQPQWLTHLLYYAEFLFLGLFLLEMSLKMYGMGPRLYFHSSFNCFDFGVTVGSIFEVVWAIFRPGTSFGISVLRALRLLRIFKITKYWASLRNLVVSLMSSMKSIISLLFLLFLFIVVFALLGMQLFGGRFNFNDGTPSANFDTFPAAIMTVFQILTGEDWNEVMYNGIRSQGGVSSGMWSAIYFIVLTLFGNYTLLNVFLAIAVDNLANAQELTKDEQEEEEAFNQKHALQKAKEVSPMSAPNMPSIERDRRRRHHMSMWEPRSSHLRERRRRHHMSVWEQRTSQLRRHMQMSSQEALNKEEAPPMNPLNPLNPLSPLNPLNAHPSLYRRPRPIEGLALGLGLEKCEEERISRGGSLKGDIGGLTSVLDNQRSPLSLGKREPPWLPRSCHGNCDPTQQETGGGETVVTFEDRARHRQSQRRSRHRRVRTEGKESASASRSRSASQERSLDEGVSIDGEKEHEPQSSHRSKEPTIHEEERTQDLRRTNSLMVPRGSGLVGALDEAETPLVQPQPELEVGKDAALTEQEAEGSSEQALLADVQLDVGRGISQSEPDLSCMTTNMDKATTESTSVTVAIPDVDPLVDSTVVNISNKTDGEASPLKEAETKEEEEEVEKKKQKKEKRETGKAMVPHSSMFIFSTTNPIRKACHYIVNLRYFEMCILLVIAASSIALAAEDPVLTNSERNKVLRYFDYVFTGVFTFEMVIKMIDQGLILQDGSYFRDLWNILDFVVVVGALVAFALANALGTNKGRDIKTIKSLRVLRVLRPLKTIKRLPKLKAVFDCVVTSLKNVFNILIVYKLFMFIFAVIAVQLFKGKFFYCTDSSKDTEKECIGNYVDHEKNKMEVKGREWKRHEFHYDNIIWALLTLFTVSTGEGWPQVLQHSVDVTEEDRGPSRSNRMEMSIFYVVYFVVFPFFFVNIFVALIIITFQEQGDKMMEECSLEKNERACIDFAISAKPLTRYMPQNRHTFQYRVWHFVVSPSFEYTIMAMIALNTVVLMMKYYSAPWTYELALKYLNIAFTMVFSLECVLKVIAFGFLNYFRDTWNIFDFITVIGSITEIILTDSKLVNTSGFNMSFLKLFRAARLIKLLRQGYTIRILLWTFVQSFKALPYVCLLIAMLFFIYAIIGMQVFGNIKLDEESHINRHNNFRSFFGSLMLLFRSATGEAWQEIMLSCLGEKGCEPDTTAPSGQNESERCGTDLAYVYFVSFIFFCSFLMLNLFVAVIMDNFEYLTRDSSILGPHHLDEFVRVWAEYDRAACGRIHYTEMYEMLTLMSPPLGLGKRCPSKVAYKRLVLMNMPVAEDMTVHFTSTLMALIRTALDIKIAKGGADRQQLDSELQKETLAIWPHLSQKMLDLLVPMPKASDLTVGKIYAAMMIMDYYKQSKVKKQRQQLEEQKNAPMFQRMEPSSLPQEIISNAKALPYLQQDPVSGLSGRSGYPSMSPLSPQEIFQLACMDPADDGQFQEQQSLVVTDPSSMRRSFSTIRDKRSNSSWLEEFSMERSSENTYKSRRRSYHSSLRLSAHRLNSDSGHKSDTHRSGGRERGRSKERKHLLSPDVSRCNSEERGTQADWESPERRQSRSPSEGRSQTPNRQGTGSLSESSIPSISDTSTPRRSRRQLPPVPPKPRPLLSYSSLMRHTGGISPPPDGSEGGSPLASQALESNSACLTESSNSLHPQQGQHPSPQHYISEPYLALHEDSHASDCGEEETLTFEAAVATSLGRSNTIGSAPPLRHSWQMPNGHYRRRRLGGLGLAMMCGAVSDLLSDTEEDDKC", "details": "at 40 nM concentration; cited from earlier work"}, "[10]": {"system": "K+ and Na+ currents, and L, P/Q and T-type calcium currents", "details": "cited from earlier work"}, "[11]": {"target": "N-type calcium current (Homo sapiens, UniProt Q00975)", "sequence (Q00975 whole entry)": "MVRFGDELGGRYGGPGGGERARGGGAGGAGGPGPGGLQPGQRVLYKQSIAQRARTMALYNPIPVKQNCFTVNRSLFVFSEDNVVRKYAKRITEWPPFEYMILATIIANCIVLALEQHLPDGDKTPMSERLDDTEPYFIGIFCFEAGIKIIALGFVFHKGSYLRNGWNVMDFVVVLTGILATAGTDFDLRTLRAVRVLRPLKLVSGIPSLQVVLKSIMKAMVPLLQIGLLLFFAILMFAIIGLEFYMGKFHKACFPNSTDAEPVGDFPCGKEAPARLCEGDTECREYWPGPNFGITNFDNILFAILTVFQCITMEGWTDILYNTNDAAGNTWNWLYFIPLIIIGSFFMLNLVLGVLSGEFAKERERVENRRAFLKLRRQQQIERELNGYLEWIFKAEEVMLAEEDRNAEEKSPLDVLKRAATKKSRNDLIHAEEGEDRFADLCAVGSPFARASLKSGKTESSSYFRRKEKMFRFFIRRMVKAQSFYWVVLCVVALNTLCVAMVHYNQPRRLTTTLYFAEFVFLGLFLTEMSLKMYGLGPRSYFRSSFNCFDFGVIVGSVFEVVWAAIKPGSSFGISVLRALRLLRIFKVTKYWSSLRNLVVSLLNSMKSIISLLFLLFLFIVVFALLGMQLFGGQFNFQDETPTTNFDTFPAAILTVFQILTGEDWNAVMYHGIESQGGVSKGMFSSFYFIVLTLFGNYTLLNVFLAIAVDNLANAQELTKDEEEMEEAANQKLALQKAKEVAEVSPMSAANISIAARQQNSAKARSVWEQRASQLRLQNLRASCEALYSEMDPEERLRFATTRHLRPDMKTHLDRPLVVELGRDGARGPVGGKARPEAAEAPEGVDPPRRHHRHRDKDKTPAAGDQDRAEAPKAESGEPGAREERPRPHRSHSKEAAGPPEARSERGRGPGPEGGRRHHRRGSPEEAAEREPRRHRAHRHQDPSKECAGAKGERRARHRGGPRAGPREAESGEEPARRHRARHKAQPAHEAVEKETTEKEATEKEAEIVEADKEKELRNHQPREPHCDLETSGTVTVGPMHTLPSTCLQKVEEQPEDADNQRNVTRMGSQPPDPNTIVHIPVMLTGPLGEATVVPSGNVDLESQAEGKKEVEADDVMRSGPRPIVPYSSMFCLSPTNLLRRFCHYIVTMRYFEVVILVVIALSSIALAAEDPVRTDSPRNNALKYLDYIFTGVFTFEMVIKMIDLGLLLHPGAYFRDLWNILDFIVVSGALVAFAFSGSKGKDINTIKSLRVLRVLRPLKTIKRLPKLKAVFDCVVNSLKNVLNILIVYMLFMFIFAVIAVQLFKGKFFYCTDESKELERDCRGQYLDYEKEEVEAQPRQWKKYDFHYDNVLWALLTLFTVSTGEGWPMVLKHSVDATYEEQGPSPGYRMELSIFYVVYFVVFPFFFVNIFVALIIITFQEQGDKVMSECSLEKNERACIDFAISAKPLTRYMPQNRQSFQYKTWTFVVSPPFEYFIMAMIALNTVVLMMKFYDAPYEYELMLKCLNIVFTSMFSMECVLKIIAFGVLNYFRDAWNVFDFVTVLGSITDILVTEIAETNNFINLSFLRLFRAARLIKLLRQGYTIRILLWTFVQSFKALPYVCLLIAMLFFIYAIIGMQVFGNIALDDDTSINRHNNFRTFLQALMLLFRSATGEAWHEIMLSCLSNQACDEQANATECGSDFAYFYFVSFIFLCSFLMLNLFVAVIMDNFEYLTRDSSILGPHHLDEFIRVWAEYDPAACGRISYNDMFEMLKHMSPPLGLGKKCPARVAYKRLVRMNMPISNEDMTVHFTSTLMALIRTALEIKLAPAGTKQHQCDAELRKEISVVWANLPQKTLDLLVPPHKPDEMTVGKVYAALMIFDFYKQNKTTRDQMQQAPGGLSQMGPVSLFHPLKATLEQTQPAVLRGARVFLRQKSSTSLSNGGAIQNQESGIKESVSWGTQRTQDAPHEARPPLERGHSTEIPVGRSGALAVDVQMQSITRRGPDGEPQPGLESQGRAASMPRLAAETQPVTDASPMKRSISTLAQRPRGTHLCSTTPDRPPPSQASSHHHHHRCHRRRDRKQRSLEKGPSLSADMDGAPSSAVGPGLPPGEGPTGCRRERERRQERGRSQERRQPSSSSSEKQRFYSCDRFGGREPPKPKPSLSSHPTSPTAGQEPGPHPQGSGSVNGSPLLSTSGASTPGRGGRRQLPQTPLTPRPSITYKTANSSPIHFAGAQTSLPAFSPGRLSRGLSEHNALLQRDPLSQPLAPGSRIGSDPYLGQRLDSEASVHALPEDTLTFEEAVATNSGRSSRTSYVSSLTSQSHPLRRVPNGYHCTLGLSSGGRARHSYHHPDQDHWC", "details": "at 300 nM to 500 nM; cited from earlier work"}, "[12]": {"details": "placebo microparticles + oral nimodipine 5.2 mg/kg daily for 21 days, n = 8"}},
  "note": "Where two headings read alike, the source gives them in different places.",
  "data": [
    {"compound": "COc1ccccc1Oc1c(NS(=O)(=O)c2ccc(C)cn2)nc(-c2ccnc(-c3nnn[nH]3)c2)nc1OCCO", "note": "[clazosentan]", "values": [
      {"measurement": "incidence of angiographic vasospasm after aneurysmal SAH", "setting": "[1]", "value": "significantly reduced the incidence of angiographic vasospasm"},
      {"measurement": "patients with primary end point", "setting": "[2]; 5 mg/h, 47/194", "value": 24, "unit": "%"},
      {"measurement": "odds ratio, primary end point", "setting": "[2]; 5 mg/h, 95% CI 0.479-1.289, P=0.340", "value": 0.786},
      {"measurement": "odds ratio, poor outcome", "setting": "[2]; 5 mg/h, 95% CI 0.546-1.544, P=0.748", "value": 0.918},
      {"measurement": "patients with poor outcome (extended Glasgow Outcome Scale score <1=4)", "setting": "[2]; 5 mg/h", "value": 25, "unit": "%"},
      {"measurement": "patients with primary end point", "setting": "[2]; 15 mg/h, 28/188", "value": 15, "unit": "%"},
      {"measurement": "odds ratio, primary end point", "setting": "[2]; 15 mg/h, 95% CI 0.275-0.818, P=0.007", "value": 0.474},
      {"measurement": "odds ratio, poor outcome", "setting": "[2]; 15 mg/h, 95% CI 0.802-2.227, P=0.266", "value": 1.337},
      {"measurement": "post aneurysmal SAH vasospasm-related morbidity/all-cause mortality", "setting": "[2]; 15 mg/h", "value": "significantly reduced"},
      {"measurement": "patients with poor outcome (extended Glasgow Outcome Scale score <1=4)", "setting": "[2]; 15 mg/h", "value": 28, "unit": "%"},
      {"measurement": "adverse events versus placebo", "setting": "[2]; 5 or 15 mg/h", "value": "Pulmonary complications, anemia, and hypotension were more common"},
      {"measurement": "outcome (extended Glasgow Outcome Scale)", "setting": "[2]; 5 or 15 mg/h", "value": "neither dose improved outcome"},
      {"measurement": "patients meeting primary composite endpoint (week 6): all-cause mortality, vasospasm-related new cerebral infarcts, delayed ischemic neurological deficit, rescue therapy", "setting": "[3]; 5 mg/h up to 14 days, 161 of 764, placebo 25%", "value": 21, "unit": "%"},
      {"measurement": "relative risk reduction, primary endpoint", "setting": "[3]; 5 mg/h, 95% CI −4 to 33, p=0.10", "value": 17, "unit": "%"},
      {"measurement": "patients with poor functional outcome (GOSE score <1=4)", "setting": "[3]; 5 mg/h, 224 patients, placebo 25%", "value": 29, "unit": "%"},
      {"measurement": "Mortality (week 12)", "setting": "[3]; 5 mg/h, both groups", "value": 6, "unit": "%"},
      {"measurement": "adverse events versus placebo", "setting": "[3]; 5 mg/h", "value": "Lung complications, anaemia, and hypotension were more common"},
      {"measurement": "effect on mortality and vasospasm-related morbidity or functional outcome", "setting": "[3]; 5 mg/h", "value": "no significant effect"},
      {"measurement": "relative risk reduction, poor functional outcome", "setting": "[3]; 5 mg/h, −45 to 4, p=0.10", "value": "−18", "unit": "%"}
    ]},
    {"compound": "COCCOC(=O)C1=C(C)NC(C)=C(C(=O)OC(C)C)C1c1cccc([N+](=O)[O-])c1", "note": "(centres unmarked) [nimodipine, Isopropyl 2-methoxyethyl 1,4-dihydro-2,6-dimethyl-4-(m-nitrophenyl)-3,5-pyridinedicarboxylate]", "values": [
      {"measurement": "% change compared to day 1, Day 8", "setting": "[4]; [12]", "value": "(−27.9 ± 3.0) %"},
      {"measurement": "% change compared to day 1, Day 15", "setting": "[4]; [12]", "value": "(−11.7 ± 4.5) %"},
      {"measurement": "Angiographic diameter of basilar artery (mm), Day 8", "setting": "[4]; [12]", "value": "1.08 ± 0.12", "unit": "mm"},
      {"measurement": "Angiographic diameter of basilar artery (mm), Day 15", "setting": "[4]; [12]", "value": "1.32 ± 0.17", "unit": "mm"},
      {"measurement": "Angiographic diameter of basilar artery (mm), Day 1", "setting": "[4]; placebo microparticles + oral nimodipine 5.2 mg/kg daily for 21 days, n = 8, baseline", "value": "1.51 ± 0.13", "unit": "mm"},
      {"measurement": "basilar artery diameter 8 and 15 days after SAH versus day 1", "setting": "[4]; placebo microparticles with oral nimodipine, ANOVA P=0.001", "value": "significant reductions in basilar artery diameter"},
      {"measurement": "release of nimodipine over time in vivo (plasma)", "setting": "[5]", "value": "Sustained release of nimodipine over time was observed"},
      {"measurement": "dogs with microthrombi", "setting": "[6]", "value": "one"},
      {"measurement": "bioavailability", "setting": "[7]", "value": "about 28%"},
      {"measurement": "concentration of nimodipine in CSF", "setting": "[8]", "value": "1.56 ± 1.17", "unit": "ng/mL"}
    ]},
    {"compound": "SNX-482", "values": [
      {"measurement": "block of R-type calcium current", "setting": "[9]", "value": "blocks"},
      {"measurement": "effect on other currents", "setting": "[10]", "value": "no effect is observed"},
      {"measurement": "block of N-type calcium current", "setting": "[11]", "value": "30-50%"}
    ]}
  ]
}
